Entries after “also recorded” stand apart in the source; their conditions may differ.
Experiments:
[1] = target: T1, Aβ1–42 self-aggregation (Homo sapiens, UniProt P05067); assay: Aβ1–42 self-aggregation inhibition, thioflavin T fluorescence assay; type: biochemical; settings: self-mediated Aβ42 aggregation, ThT fluorescence, CL = 40 μM, means of two experiments; for inhibition at 40 µM: read-out: Inhibition of Aβ-self-aggregation (%)
T1 construct: Commercially available Aβ1-42 peptide was obtained from Aldrich; purchased Aldrich
Description: […]. Since the compounds of this series presented some solubility problems in methanol, the assays were performed with ligands at concentrations of 40 µM, i.e., half of the concentration usually used (80 µM) in these assays. […]. […] So, it appears that introduction of a chloro substituent in TAC and/or a hydroxyl group in the carbon linker are not well suited for the interaction with β-sheet secondary structure of Aβ aggregates. […].
Commercially available Aβ1-42 peptide was obtained from Aldrich and stored at −20 °C. It was treated with 1,1,1,3,3,3-hexafluoropropan-2-ol (HFIP) to avoid self-aggregation and reserved. HFIP pre-treated Aβ1–42 samples were re-dissolved in CH3CN/Na2CO3 (300 µM)/NaOH (250 µM) (48.3:48.3:4.3, v/v/v) solvent mixture in order to have a stable stock solution; this solution (500 µM) was further diluted in phosphate buffer (0.215 M, pH 8.0) to obtain 40 µM solution. The ligand, which was previously dissolved in methanol, was further diluted in phosphate buffer to a final concentration of 40 µM. Aβ1–42 aggregation was determined by measuring the fluorescence emission of Thioflavin T dye, with a Cary Eclipse Varian fluorimeter (Molecular Devices, San José, CA, USA).
After incubation for 24 h at 37 °C, without stirring, the samples were added to a 96-well plate (BD Falcon) with 180 µL of 5 µM ThT in 50 mM glycine-NaOH (pH 8.5) buffer. Blank samples were prepared for each concentration in a similar way, devoid of peptide. As for the control, a sample of the peptide was incubated under identical conditions but without the inhibitor. After 5-min incubation with the dye, the ThT fluorescence was measured at the following wavelengths: 446 nm (excitation) and 486 nm (emission). The percent inhibition of the self-induced aggregation due to the presence of the test compound was calculated by Equation (2), in which IFi and IF0 corresponded to the fluorescence intensities, in the presence and the absence of the test compound, minus the fluorescence intensities due to the respective blanks. I% = 100 − (IFi/IF0 × 100)(2)
The reported values were obtained as the mean ± S.E.M. of two different experiments.

[2] = system: SH-SY5Y cells; assay: Neuroprotection against Aβ1–42 induced toxicity, MTT reduction; type: cell-based, human; settings: Aβ1-42 1 μM, 24 h after 1 h pre-treatment, compounds: 16 2.5 µM, 17 0.5 µM, 14 and 15 0.2 µM, 19 and 18 1 µM
Description: The neuroprotective effect of TAC-PhBTA conjugates was evaluated using SH-SY5Y cells treated with Aβ1–42 peptides or ascorbate/iron. For each compound, a dose-response curve was performed to select a non-toxic concentration in order to analyze its neuroprotective effect (Figure 3).
SH-SY5Y human neuroblastoma cell line (ATCC-CRL-2266) grown in Dulbecco’s modified Eagle’s medium (DMEM) obtained from Gibco-Invitrogen (Life Technologies Ltd., Liverpool, UK) with 10% heat inactivated fetal calf serum, containing 50 U/mL penicillin, and 50 μg/mL streptomycin, under a humidified atmosphere of 95% air-5% CO2 at 37 °C. Cells were plated at 0.12 × 10^6 cells/mL for cell viability assay. The tested compounds (16, 17, 14, 15, 19 and 18) were dissolved in DMSO at a concentration of 25 mM and aliquots were stored at −20 °C. We performed a dose-response screening (from 0.2 μM to 5 μM) in order to choose the highest non-toxic concentration. As a result we selected a 2.5 μM final concentration for compound 16; 0.5 μM final concentration for compound 17; 0.2 μM final concentration for compounds 14 and 15; and a 1 μM final concentration for compounds 19 and 18. […] The compounds were added to the cell media 1 h before the incubation with Aβ1–42 or ferrous sulfate/L-ascorbic acid. Aβ1–42 or ferrous sulfate/L-ascorbic acid where incubated alone or with the compound for an additional 24 h. Aβ1–42 was prepared as 276.9 μM stock in sterile water and added to the medium at 1 μM final concentration. Ferrous sulfate was freshly prepared as 0.36 M stock in water and added to the medium at 500 μM final concentration. L-Ascorbic Acid was freshly prepared as 80 mM stock in water and added to the medium at 5 mM final concentration. […]
Cell viability was determined by a MTT (3-(4,5-dimethylthiazol-2-yl)-2,5-diphenyltetrazolium bromide) reduction test. […] The absorbance was measured at 570 nm. Cell reduction ability was expressed as a percentage of untreated control cells.
All data were expressed as mean ± S.E.M. of at least three independent experiments performed in duplicates. […]

T1 sequence (P05067 672-713 limits assumed): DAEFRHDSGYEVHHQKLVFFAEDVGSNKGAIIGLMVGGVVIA

Structure (SMILES)	Inhibition of Aβ-self-aggregation (%) ([1]; 40 µM)	inhibition at 40 µM [1]	Prevention of Aβ-induced cell toxicity (cell viability, MTT) [2]
COc1cc(-c2nc3ccccc3s2)ccc1OCC(=O)NCC(O)CNc1c2c(nc3cc(Cl)ccc13)CCCC2 (stereo not shown) [compound 19, 2-(4-(Benzo[d]thiazol-2-yl)-2-methoxyphenoxy)-N-(3-((6-chloro-1,2,3,4-tetrahydroacridin-9-yl)amino)-2-hydroxypropyl)acetamide]	31.3%	~31%	capacity to prevent Aβ-induced toxicity; also recorded: prevented Aβ-induced cell toxicity
COc1cc(-c2nc3ccccc3s2)ccc1OCC(=O)NCCNc1c2c(nc3cc(Cl)ccc13)CCCC2 [compound 15, 2-(4-(Benzo[d]thiazol-2-yl)-2-methoxyphenoxy)-N-(2-((6-chloro-1,2,3,4 tetrahydroacridin-9-yl)amino)ethyl)acetamide]	–	27%	capacity to prevent Aβ-induced toxicity; also recorded: prevented Aβ-induced cell toxicity
COc1cc(-c2nc3ccccc3s2)ccc1OCC(=O)NCCCNc1c2c(nc3ccccc13)CCCC2 [compound 16, 2-(4-(Benzo[d]thiazol-2-yl)-2-methoxyphenoxy)-N-(3-((1,2,3,4-tetrahydroacridin-9-yl)amino)propyl)acetamide]	–	33.7%	capacity to prevent Aβ-induced toxicity; also recorded: prevented Aβ-induced cell toxicity

Reference: publication PMC6385087, “New Multitarget Hybrids Bearing Tacrine and Phenylbenzothiazole Motifs as Potential Drug Candidates for Alzheimer’s Disease” (Molecules, 2019)
